For the assay, the target named is T1, mouse NPY5-receptor (mNPY5) (Mus musculus, UniProt O70342).
T1 construct: The full-length cDNA encoding the mouse NPY5 (mNPY5) receptor was amplified from mouse brain cDNA; expressed in transfected cells; membrane preparation
T1 sequence (O70342 1-466): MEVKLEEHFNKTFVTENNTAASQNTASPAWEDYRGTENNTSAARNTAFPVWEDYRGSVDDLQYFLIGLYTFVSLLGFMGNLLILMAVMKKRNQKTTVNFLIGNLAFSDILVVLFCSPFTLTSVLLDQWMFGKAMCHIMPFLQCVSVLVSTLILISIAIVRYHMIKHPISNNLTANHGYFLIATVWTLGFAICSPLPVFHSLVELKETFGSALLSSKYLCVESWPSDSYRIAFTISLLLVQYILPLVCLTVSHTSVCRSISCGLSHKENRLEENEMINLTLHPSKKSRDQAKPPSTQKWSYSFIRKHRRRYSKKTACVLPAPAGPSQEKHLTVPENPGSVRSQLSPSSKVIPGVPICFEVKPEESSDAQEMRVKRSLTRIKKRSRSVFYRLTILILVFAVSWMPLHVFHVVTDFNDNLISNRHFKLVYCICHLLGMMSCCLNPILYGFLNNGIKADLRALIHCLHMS
Briefly: Radioligand competition binding. The following applies: displacement of 100 pM [125I]labelled peptide YY, membranes of HEK293 cells expressing recombinant mNPY5, 1 h at 22° C.; read-out: NPY5-R (mouse) IC50. An excerpt: The full-length cDNA encoding the mouse NPY5 (mNPY5) receptor was amplified from mouse brain cDNA using specific primers, designed based on the published sequence, and Pfu DNA-Polymerase (Stratagene). The amplification product was subcloned into the mammalian expression vector pcDNA3 using Eco RI and XhoI restriction sites. Positive clones were sequenced and one clone, encoding the published sequence was selected for generation of stable cell clones.
Human embryonic kidney 293 (HEK293) cells were transfected with 10 μg mNPY5 DNA using the lipofectamine reagent (Gibco BRL) according to the manufacturer's instruction. Two days after transfection, geneticin selection (1 mg/ml) was initiated and several stable clones were isolated. One clone was further used for pharmacological characterization.
Human embryonic kidney 293 cells (HEK293), expressing recombinant mouse NPY5-receptor (mNPY5) were broken by three freeze/thawing cycles in hypotonic Tris buffer (5 mM, pH 7.4, 1 mM MgCl2), homogenized and centrifuged at 72,000×g for 15 min. The pellet was washed twice with 75 mM Tris buffer, pH 7.4, containing 25 mM MgCl2 and 250 mM sucrose, 0.1 mM phenylmethylsulfonylfluoride and 0.1 mM 1,10-pheneanthrolin, resuspended in the same buffer and stored in aliquots at −80° C. Protein was determined according to the method of Lowry using bovine serum albumine (BSA) as a standard. […]

SMILES strings stand for the structures.

In general, IC50 refers to the point on the concentration scale where inhibition reaches its midpoint. In the case of `Cc1cc(N2CCCC2)c2ccc(OCC3CC3)cc2n1` [Example 5, 7-cyclopropylmethoxy-2-methyl-4-pyrrolidin-1-yl-quinoline], the IC50 came to 27 nM. In the case of `CCCCc1cc2c(N3CCCC3)ccnc2cc1O` [Example 34, 6-butyl-4-pyrrolidin-1-yl-quinolin-7-ol], the IC50 worked out at 9.9 nM.

The values above are taken from US6818767B2, “Quinoline derivatives” (Hoffmann-La Roche Inc., priority 2001, dated 2004).
